Measurements: PMC11953117 (Cancer Chemotherapy and Pharmacology, 2025)
Read-outs that look alike come from different tables or passages of the source.

What was measured:
[1] = Capivasertib exposure metrics at steady state projected with PopPK model, patients with solid tumors; assay type: in vivo; conditions: human, plasma, oral; for concentration at 12 h: read-out: Cmin; for AUC: read-out: AUCss(0–12 h)
Method: Study 1 (NCT01226316) was a phase 1 open-label multipart study. […] The duration of the treatment cycles was 21 days. […] [18]. […] [18, 25, 39].
Study 4 (NCT01353781) was a phase 1 dose-escalation study in Japanese patients with advanced solid malignancies.
(§1) The exposure–response analyses were conducted using a subset of patients from the PopPK analysis where capivasertib was used as monotherapy. […] As different schedules were assessed between and within studies, the exposure metrics were derived for the last dose of the last dosing day in the second week of treatment (i.e. on days 14, 11, and 9 for the continuous, [4/3] and [2/5] schedules, respectively), to ensure SS conditions, using the planned dose. […] The relative dose intensity (RDI) was calculated as the percentage of the average weekly dose relative to the PWD to examine the tolerability of capivasertib monotherapy at the given dosing schedules.

AKT = test system: AKT; parameters: method as in PMID 29066505; conditions: 480 mg BID [4/3] versus 320 mg continuous dosing; cited from earlier work
[2] = Relative dose intensity (RDI) of capivasertib monotherapy; assay type: in vivo, human
Method: as §1

[3] = Exposure–response analysis (logistic regression) of safety endpoints; assay type: in vivo, human
Method: as §1
Logistic regression models were used to establish associations between the probability of the safety endpoints with the exposure metrics at a statistically significant level of 0.005.

[4] = parameters: method as in PMID 29066505, PMID 26931343; conditions: monotherapy, cited from earlier work; for recommended phase 2 dose: based on DLTs
[5] = 600 mg, Study 1, Continuous BID, PWD 8400 mg, N=2, median (range)
[6] = 640 mg, Study 1, [2/5] BID, 640 mg, PWD 2560 mg, N=8, median (range)
[7] = 640 mg, Study 1, [2/5] BID, PWD 2560 mg, N=8, median (range)
[8] = 640 mg, Study 1, [4/3] BID, 640 mg, PWD 5120 mg, N=10, median (range)
[9] = 640 mg, Study 1, [4/3] BID, PWD 5120 mg, N=10, median (range)
[10] = 640 mg, Study 4 (Japanese patients), [2/5] BID, 640 mg, PWD 2560 mg, N=6, median (range)
[11] = 640 mg, Study 4 (Japanese patients), [2/5] BID, PWD 2560 mg, N=6, median (range)
[12] = 800 mg, Study 1, [2/5] BID, 800 mg, PWD 3200 mg, N=14, median (range)
[13] = 800 mg, Study 1, [2/5] BID, PWD 3200 mg, N=14, median (range)
[14] = univariate logistic regression, significance level 0.005

NC1(C(=O)N[C@@H](CCO)c2ccc(Cl)cc2)CCN(c2ncnc3[nH]ccc23)CC1 [capivasertib, 4-amino-N-[(1S)-1-(4-chlorophenyl)-3-hydroxypropyl]-1-(7H-pyrrolo[2,3-d]pyrimidin– 4-yl)piperidine-4-carboxamide]
concentration at 12 h ([1]; 600 mg, Study 1, Continuous BID, 600 mg, PWD 8400 mg, N=2, median (range)): 460 ng/mL | AUC at 1 week [1, 5]: 200000 ng·h/mL | Cmax [1, 5]: 2520 ng/mL | AUC [1, 6]: 15000 ng·h/mL | concentration at 12 h [1, 6]: 570 ng/mL | AUC at 1 week [1, 7]: 59800 ng·h/mL | Cmax [1, 7]: 2080 ng/mL | AUC [1, 8]: 15900 ng·h/mL | concentration at 12 h [1, 8]: 550 ng/mL | AUC at 1 week [1, 9]: 127000 ng·h/mL | Cmax [1, 9]: 2430 ng/mL | AUC [1, 10]: 15200 ng·h/mL | concentration at 12 h [1, 10]: 570 ng/mL | AUC at 1 week [1, 11]: 61000 ng·h/mL | Cmax [1, 11]: 2480 ng/mL | AUC [1, 12]: 26400 ng·h/mL | concentration at 12 h [1, 12]: 1080 ng/mL | AUC at 1 week [1, 13]: 106000 ng·h/mL | Cmax [1, 13]: 3930 ng/mL | target engagement in tumor tissue (AKT): greater target engagement | RDI ([2]; OAK, [4/3] BID, 480 mg, PWD 3840 mg, N=30, median (range)): 100 (45.6–115.4) % | RDI ([2]; Study 1, Continuous BID, 80 mg, PWD 1120 mg, N=5, median (range)): 100.0 (95.9–100.6) % | RDI ([2]; Study 1, Continuous BID, 160 mg, PWD 2240 mg, N=5, median (range)): 97.6 (83.5–102.3) % | RDI ([2]; Study 1, Continuous BID, 240 mg, PWD 3360 mg, N=6, median (range)): 100.3 (98.8–100.9) % | RDI ([2]; Study 1, Continuous BID, 320 mg, PWD 4480 mg, N=12, median (range)): 98.1 (37.2–102.4) % | RDI ([2]; Study 1, Continuous BID, 400 mg, PWD 5600 mg, N=11, median (range)): 80.3 (55.4–102.1) % | RDI ([2]; Study 1, Continuous BID, 480 mg, PWD 6720 mg, N=6, median (range)): 50.2 (45.3–83.3) % | RDI ([2]; Study 1, Continuous BID, 600 mg, PWD 8400 mg, N=2, median (range)): 103.1 (100–106.2) % | RDI ([2]; Study 1, [2/5] BID, 640 mg, PWD 2560 mg, N=8, median (range)): 94.0 (80.9–109.1) % | RDI ([2]; Study 1, [2/5] BID, 800 mg, PWD 3200 mg, N=14, median (range)): 101.1 (42.5–133.3) % | RDI ([2]; Study 1, [4/3] BID, 480 mg, PWD 3840 mg, N=127, median (range)): 97.9 (26.4–138.9) % | RDI ([2]; Study 1, [4/3] BID, 640 mg, PWD 5120 mg, N=10, median (range)): 100.0 (70.5–122.2) % | RDI ([2]; Study 4 (Japanese patients), Continuous BID, 80 mg, PWD 1120 mg, N=3, median (range)): 100.0 (88.7–102.3) % | RDI ([2]; Study 4 (Japanese patients), Continuous BID, 240 mg, PWD 3360 mg, N=7, median (range)): 100.0 (41.9–106.7) % | RDI ([2]; Study 4 (Japanese patients), Continuous BID, 320 mg, PWD 4480 mg, N=6, median (range)): 91.5 (59.3–101.1) % | RDI ([2]; Study 4 (Japanese patients), Continuous BID, 400 mg, PWD 5600 mg, N=5, median (range)): 72.1 (51.4–85.7) % | RDI ([2]; Study 4 (Japanese patients), [2/5] BID, 640 mg, PWD 2560 mg, N=6, median (range)): 111.2 (100–119) % | RDI ([2]; Study 4 (Japanese patients), [4/3] BID, 360 mg, PWD 2880 mg, N=8, median (range)): 107.9 (91.4–112) % | RDI ([2]; Study 4 (Japanese patients), [4/3] BID, 480 mg, PWD 3840 mg, N=6, median (range)): 107.9 (79.1–108.6) % | RDI ([2]; [4/3] and [2/5] schedules at all dose levels): > 90% | RDI ([2]; continuous schedule, 400 and 480 mg doses): ≤ 80% | probability of hyperglycemia AE grade ≥ 3 and increased blood glucose > 13.9 mmol/L ([3]; [2/5] 640 mg compared with [4/3] 480 mg): higher probability | probabilities of hyperglycemia AE grade ≥ 3 and increased blood glucose > 13.9 mmol/L: effect of schedule ([3]; at a given dose): did not depend on the schedule | probability of AEDD, AEDM and diarrhea AE grade ≥ 2: effect of schedule ([3]; at a given dose, intermittent schedules compared with continuous, statistically significant): lower probability of events | probability of hyperglycemia AE grade ≥ 3 and increased blood glucose > 13.9 mmol/L: effect of schedule ([3]; at a given weekly dose, intermittent schedules compared with continuous, statistically significant): higher probability of events | probability of rash AE grade ≥ 2, AEDD, AEDM, AE grade ≥ 3, SAE and diarrhea AE grade ≥ 2 ([3]; continuous 320 mg (4480 mg weekly) compared with [4/3] 480 mg (3840 mg weekly)): higher | relationships between exposure metrics and AE grade ≥ 1 ([3]; logistic regression, significance level 0.005): No significant relationships | exposure metrics with significant relationship to AE grade ≥ 3 [3, 14]: dose, PWD, AUC, AUCPWD, Cmax, and Cmin | exposure metrics with significant relationship to AE leading to dose discontinuation [3, 14]: PWD | exposure metrics with significant relationship to AE leading to dose modification [3, 14]: PWD, AUC, AUCPWD, Cmax, and Cmin | exposure metrics with significant relationship to SAE [3, 14]: dose, PWD, AUC, AUCPWD, Cmax, and Cmin | exposure metrics with significant relationship to diarrhea AE grade ≥ 2 [3, 14]: PWD, AUCPWD | exposure metrics with significant relationship to hyperglycemia AE grade ≥ 3 [3, 14]: dose, AUC, AUCPWD, Cmax, and Cmin | exposure metrics with significant relationship to increased blood glucose > 13.9 mmol/L [3, 14]: dose, AUC, AUCPWD, Cmax, and Cmin | exposure metrics with significant relationship to rash AE grade ≥ 2 [3, 14]: PWD | recommended phase 2 dose ([4]; [2/5] schedule): 640 mg BID | recommended phase 2 dose ([4]; [4/3] schedule): 480 mg BID | recommended phase 2 dose ([4]; continuous schedule): 320 mg BID | dose-limiting toxicities (DLTs) ([4]; first-in-human study): diarrhea, rash, and hyperglycemia
